# Measured values published in patent US10815230B2, “Casein kinase 1 delta inhibitor” (ELECTROPHORETICS LIMITED, priority 2015, dated 2020).
# Tests used:
# Assay in all cases: KINOMEscan binding assay
# Conditions in all cases: read-out: % Ctrl @ 10000 nM
# [1] = target: MARK4 (Homo sapiens, UniProt Q96L34)
# [2] = target: PIP5K1C (Homo sapiens, UniProt O60331)
# [3] = target: CIT (Homo sapiens, UniProt O14578)
# [4] = target: p38-gamma (Homo sapiens, UniProt P53778)
# [5] = target: DYRK2 (Homo sapiens, UniProt Q92630)
# [6] = target: CAMK1 (Homo sapiens, UniProt Q14012)
# [7] = target: T1, YSK1 (Homo sapiens, UniProt O00506)
# T1 construct: purchased DiscoveRx (KINOMEscan, LeadHunter Discovery services)
# [8] = target: p38-delta (Homo sapiens, UniProt O15264)
# p38-delta, sequence (O15264 whole entry): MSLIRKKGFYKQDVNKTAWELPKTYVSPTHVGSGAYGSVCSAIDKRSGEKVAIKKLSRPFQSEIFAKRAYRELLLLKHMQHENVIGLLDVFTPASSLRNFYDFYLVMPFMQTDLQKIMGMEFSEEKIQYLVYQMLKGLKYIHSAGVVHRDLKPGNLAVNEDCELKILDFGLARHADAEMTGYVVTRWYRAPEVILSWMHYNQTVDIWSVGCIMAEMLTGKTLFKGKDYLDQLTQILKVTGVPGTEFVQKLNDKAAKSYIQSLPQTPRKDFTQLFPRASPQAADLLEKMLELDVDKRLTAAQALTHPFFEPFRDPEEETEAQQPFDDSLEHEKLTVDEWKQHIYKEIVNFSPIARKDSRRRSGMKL
# [9] = target: CDK11 (Homo sapiens, UniProt Q9BWU1)
# [10] = target: TRKC (Homo sapiens, UniProt Q16288)
# [11] = target: FLT3 (N841I) (Homo sapiens, UniProt P36888, N841I)
# [12] = target: ABL1 (M351T) phosphorylated (Homo sapiens, UniProt P00519, M351T)
# [13] = target: CDKL3 (Homo sapiens, UniProt Q8IVW4)
# CDKL3, sequence (Q8IVW4 whole entry): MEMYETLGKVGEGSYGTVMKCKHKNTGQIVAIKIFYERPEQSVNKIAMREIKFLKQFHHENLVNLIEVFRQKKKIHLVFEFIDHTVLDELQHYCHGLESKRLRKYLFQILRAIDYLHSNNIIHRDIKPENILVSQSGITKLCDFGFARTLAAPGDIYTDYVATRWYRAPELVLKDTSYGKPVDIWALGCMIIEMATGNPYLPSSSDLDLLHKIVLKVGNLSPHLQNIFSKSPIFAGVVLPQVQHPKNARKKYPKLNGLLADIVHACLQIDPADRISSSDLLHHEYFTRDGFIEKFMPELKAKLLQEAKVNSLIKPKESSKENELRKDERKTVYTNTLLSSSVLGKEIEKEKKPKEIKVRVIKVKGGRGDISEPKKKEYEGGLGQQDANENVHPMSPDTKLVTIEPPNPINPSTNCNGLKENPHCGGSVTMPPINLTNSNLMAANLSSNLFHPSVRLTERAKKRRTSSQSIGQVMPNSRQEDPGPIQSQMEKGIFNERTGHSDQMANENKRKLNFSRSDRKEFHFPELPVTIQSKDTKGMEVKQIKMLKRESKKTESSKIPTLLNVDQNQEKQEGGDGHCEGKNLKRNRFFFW
# [14] = target: RPS6KA4 Kin.Dom.1-N-terminal (Homo sapiens, UniProt O75676)
# [15] = target: CSK (Homo sapiens, UniProt P41240)
# [16] = target: T2, VRK2 (Homo sapiens, UniProt Q86Y07)
# T2 construct: purchased DiscoveRx (KINOMEscan, LeadHunter Discovery services)
# [17] = target: NEK6 (Homo sapiens, UniProt Q9HC98)
# NEK6, sequence (Q9HC98 whole entry): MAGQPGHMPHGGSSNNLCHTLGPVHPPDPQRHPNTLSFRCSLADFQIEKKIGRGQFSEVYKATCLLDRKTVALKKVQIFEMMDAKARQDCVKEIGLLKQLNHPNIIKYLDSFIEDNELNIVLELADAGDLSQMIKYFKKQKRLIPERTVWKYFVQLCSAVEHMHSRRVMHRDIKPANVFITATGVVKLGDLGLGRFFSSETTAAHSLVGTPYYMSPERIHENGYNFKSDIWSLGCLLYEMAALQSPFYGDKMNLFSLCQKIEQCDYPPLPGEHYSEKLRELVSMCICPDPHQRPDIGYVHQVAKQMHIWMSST
# [18] = target: PFCDPK1 P. falciparum (Plasmodium falciparum, UniProt P62344)
# [19] = target: MINK (Homo sapiens, UniProt Q8N4C8)
# [20] = target: DLK (Homo sapiens, UniProt Q12852)
# [21] = target: CHEK1 (Homo sapiens, UniProt O14757)
# [22] = target: FGFR3 (G697C) (Homo sapiens, UniProt P22607, G697C)
# [23] = target: EGFR E746-A750del (Homo sapiens, UniProt P00533, DEL746-750)
# [24] = target: FGFR4 (Homo sapiens, UniProt P22455)
# [25] = target: AXL (Homo sapiens, UniProt P30530)
# [26] = target: LOK (Homo sapiens, UniProt O94804)
# [27] = target: BRSK1 (Homo sapiens, UniProt Q8TDC3)
# [28] = target: SRPK1 (Homo sapiens, UniProt Q96SB4)
# [29] = target: MARK2 (Homo sapiens, UniProt Q7KZI7)
# [30] = target: CSNK1A1L (Homo sapiens, UniProt Q8N752)
# [31] = target: RPS6KA5 Kin.Dom.2-C-terminal (Homo sapiens, UniProt O75582)
# [32] = target: BTK (Homo sapiens, UniProt Q06187)
# [33] = target: MTOR (Homo sapiens, UniProt P42345)
# [34] = target: CTK (Homo sapiens, UniProt P42679)
# [35] = target: ERK4 (Homo sapiens, UniProt P31152)
# ERK4, sequence (P31152 whole entry): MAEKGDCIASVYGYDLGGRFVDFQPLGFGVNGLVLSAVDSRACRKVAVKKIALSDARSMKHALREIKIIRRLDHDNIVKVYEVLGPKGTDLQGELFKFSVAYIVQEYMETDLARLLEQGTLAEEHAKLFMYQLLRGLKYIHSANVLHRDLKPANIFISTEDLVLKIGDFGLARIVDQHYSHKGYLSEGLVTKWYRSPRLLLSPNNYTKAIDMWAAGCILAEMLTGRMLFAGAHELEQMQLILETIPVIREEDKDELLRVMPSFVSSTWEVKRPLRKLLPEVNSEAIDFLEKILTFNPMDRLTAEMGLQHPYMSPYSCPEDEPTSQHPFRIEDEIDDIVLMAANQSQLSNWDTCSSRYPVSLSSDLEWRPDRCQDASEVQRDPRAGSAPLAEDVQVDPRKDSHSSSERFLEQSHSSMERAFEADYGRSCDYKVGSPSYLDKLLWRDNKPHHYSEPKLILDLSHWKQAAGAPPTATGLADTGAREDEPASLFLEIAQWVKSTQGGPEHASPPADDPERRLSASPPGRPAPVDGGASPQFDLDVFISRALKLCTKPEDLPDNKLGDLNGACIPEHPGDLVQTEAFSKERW
# [36] = target: NDR2 (Homo sapiens, UniProt Q9Y2H1)
# [37] = target: CDK5 (Homo sapiens, UniProt Q00535)
# [38] = target: CLK2 (Homo sapiens, UniProt P49760)
# [39] = target: MARK1 (Homo sapiens, UniProt Q9P0L2)
# [40] = target: PAK6 (Homo sapiens, UniProt Q9NQU5)
# [41] = target: JAK2 (JH1domain-catalytic) (Homo sapiens, UniProt O60674)
# JAK2 (JH1domain-catalytic), sequence (O60674 849-1124 limits assumed): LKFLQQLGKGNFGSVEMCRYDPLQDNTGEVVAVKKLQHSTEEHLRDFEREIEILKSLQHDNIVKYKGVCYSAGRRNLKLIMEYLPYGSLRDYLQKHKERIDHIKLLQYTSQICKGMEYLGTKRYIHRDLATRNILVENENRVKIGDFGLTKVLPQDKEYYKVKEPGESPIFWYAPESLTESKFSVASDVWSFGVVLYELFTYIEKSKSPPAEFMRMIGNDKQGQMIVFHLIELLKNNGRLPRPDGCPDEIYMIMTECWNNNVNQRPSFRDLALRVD
# [42] = target: AKT1 (Homo sapiens, UniProt P31749)
# AKT1, sequence (P31749 whole entry): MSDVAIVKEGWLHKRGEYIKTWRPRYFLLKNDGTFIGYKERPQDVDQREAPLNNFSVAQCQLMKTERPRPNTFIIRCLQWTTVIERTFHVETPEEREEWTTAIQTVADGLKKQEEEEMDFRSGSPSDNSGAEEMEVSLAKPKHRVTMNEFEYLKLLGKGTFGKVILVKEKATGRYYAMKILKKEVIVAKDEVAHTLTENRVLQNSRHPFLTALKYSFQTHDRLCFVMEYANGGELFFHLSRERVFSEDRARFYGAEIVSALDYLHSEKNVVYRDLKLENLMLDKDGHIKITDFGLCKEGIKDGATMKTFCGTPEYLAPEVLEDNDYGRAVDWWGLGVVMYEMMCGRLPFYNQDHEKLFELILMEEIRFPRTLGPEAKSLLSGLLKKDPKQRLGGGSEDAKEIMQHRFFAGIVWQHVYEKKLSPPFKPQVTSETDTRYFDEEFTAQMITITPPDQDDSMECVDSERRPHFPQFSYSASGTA
# p38-gamma, sequence (P53778 whole entry): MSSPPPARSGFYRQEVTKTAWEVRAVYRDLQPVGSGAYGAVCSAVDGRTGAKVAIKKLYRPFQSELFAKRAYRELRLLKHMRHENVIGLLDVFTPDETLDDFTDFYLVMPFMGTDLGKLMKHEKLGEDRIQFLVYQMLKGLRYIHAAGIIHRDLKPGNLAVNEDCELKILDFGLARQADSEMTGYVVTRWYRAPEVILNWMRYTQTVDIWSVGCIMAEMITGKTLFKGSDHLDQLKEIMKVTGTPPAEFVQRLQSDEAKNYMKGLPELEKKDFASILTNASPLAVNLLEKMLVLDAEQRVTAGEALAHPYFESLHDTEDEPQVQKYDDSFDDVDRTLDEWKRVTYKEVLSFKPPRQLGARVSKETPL
# CIT, sequence (O14578 whole entry): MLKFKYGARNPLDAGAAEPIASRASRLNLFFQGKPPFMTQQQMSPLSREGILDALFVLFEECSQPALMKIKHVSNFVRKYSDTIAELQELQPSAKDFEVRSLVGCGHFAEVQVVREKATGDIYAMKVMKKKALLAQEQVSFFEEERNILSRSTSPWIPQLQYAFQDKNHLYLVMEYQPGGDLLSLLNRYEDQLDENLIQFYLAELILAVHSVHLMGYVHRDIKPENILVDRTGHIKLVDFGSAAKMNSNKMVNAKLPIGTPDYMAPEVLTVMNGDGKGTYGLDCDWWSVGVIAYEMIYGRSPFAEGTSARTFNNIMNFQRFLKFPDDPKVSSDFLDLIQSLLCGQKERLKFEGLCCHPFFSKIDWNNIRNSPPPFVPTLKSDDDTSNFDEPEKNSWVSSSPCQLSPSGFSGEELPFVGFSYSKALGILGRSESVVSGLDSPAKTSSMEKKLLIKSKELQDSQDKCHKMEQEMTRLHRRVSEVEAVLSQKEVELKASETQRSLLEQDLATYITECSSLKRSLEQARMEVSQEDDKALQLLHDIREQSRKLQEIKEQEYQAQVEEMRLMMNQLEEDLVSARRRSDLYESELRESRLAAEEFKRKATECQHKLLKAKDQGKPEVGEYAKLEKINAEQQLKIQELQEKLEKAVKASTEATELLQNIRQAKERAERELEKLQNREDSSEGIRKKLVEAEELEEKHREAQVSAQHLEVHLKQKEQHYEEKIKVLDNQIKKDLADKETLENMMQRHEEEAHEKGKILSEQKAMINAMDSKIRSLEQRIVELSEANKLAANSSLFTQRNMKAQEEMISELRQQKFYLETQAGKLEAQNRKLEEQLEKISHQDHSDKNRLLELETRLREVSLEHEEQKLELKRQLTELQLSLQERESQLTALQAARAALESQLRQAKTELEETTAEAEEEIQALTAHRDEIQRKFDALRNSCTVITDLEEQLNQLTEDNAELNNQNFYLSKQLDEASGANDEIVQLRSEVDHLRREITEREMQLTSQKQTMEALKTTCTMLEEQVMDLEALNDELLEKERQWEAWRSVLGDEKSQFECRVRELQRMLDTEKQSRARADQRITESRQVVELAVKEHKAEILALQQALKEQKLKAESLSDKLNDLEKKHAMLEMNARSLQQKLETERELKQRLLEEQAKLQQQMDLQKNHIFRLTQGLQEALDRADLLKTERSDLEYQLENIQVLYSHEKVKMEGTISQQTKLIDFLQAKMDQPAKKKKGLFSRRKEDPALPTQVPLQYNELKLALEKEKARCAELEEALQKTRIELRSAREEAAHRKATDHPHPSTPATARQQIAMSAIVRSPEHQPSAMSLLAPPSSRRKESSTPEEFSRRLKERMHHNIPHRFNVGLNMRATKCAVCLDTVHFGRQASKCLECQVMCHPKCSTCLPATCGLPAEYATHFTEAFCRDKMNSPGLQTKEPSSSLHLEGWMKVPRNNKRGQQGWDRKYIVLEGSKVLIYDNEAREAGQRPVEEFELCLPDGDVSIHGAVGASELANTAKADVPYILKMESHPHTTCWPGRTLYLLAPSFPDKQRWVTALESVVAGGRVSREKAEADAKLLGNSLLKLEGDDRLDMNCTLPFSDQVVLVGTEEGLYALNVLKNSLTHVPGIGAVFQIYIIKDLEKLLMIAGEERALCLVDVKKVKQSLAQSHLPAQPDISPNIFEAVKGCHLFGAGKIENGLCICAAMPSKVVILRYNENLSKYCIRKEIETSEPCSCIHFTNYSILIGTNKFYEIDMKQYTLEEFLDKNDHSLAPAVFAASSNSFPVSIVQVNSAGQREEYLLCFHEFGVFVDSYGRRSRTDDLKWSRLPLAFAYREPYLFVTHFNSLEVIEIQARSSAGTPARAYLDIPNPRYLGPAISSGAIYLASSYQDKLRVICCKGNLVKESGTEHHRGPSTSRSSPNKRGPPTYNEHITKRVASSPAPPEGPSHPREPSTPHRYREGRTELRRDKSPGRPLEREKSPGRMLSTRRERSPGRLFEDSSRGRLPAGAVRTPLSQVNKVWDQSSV
structure (smiles),measurement,setting,value
"Nc1ncc(-c2nc3ccccc3o2)c(-c2ccncc2)n1 [Comparative Compound 324, 5-(1,3-benzoxazol-2-yl)-4-(pyridine-4-yl)pyrimidin-2-amine]",remaining binding at 10 µM,[1],100%
same,remaining binding at 10 µM,[2],75%
same,remaining binding at 10 µM,[3],73%
same,remaining binding at 10 µM,[4],61%
same,remaining binding at 10 µM,[5],82%
same,remaining binding at 10 µM,[6],100%
same,remaining binding at 10 µM,[7],84%
same,remaining binding at 10 µM,[8],90%
same,remaining binding at 10 µM,[9],100%
same,remaining binding at 10 µM,[10],81%
same,remaining binding at 10 µM,[11],83%
same,remaining binding at 10 µM,[12],79%
same,remaining binding at 10 µM,[13],100%
same,remaining binding at 10 µM,[14],100%
same,remaining binding at 10 µM,[15],100%
same,remaining binding at 10 µM,[16],86%
same,remaining binding at 10 µM,[17],91%
same,remaining binding at 10 µM,[18],78%
same,remaining binding at 10 µM,[19],56%
same,remaining binding at 10 µM,[20],91%
same,remaining binding at 10 µM,[21],100%
same,remaining binding at 10 µM,[22],76%
same,remaining binding at 10 µM,[23],80%
same,remaining binding at 10 µM,[24],100%
same,remaining binding at 10 µM,[25],100%
same,remaining binding at 10 µM,[26],72%
same,remaining binding at 10 µM,[27],98%
same,remaining binding at 10 µM,[28],64%
same,remaining binding at 10 µM,[29],91%
same,remaining binding at 10 µM,[30],81%
same,remaining binding at 10 µM,[31],96%
same,remaining binding at 10 µM,[32],92%
same,remaining binding at 10 µM,[33],71%
same,remaining binding at 10 µM,[34],100%
same,remaining binding at 10 µM,[35],90%
same,remaining binding at 10 µM,[36],96%
same,remaining binding at 10 µM,[37],100%
same,remaining binding at 10 µM,[38],78%
same,remaining binding at 10 µM,[39],100%
same,remaining binding at 10 µM,[40],100%
same,remaining binding at 10 µM,[41],98%
same,remaining binding at 10 µM,[42],96%
"CNc1c(C(N)=O)c2ccccn2c1C(=O)c1ccc(F)cc1 [Compound A, 2-methyl-amino-3-[(4-fluorophenyl)carbonyl]indolizine-1-carboxamide]",remaining binding at 10 µM,[1],100%
same,remaining binding at 10 µM,[2],67%
same,remaining binding at 10 µM,[3],58%
same,remaining binding at 10 µM,[4],79%
same,remaining binding at 10 µM,[5],83%
same,remaining binding at 10 µM,[6],100%
same,remaining binding at 10 µM,[7],64%
same,remaining binding at 10 µM,[8],85%
same,remaining binding at 10 µM,[9],95%
same,remaining binding at 10 µM,[10],75%
same,remaining binding at 10 µM,[11],87%
same,remaining binding at 10 µM,[12],49%
same,remaining binding at 10 µM,[13],93%
same,remaining binding at 10 µM,[14],100%
same,remaining binding at 10 µM,[15],91%
same,remaining binding at 10 µM,[16],35%
same,remaining binding at 10 µM,[17],76%
same,remaining binding at 10 µM,[18],0.9%
same,remaining binding at 10 µM,[19],57%
same,remaining binding at 10 µM,[20],84%
same,remaining binding at 10 µM,[21],85%
same,remaining binding at 10 µM,[22],71%
same,remaining binding at 10 µM,[23],25%
same,remaining binding at 10 µM,[24],100%
same,remaining binding at 10 µM,[25],95%
same,remaining binding at 10 µM,[26],61%
same,remaining binding at 10 µM,[27],100%
same,remaining binding at 10 µM,[28],49%
same,remaining binding at 10 µM,[29],85%
same,remaining binding at 10 µM,[30],1.2%
same,remaining binding at 10 µM,[31],88%
same,remaining binding at 10 µM,[32],88%
same,remaining binding at 10 µM,[33],96%
same,remaining binding at 10 µM,[34],100%
same,remaining binding at 10 µM,[35],78%
same,remaining binding at 10 µM,[36],85%
same,remaining binding at 10 µM,[37],81%
same,remaining binding at 10 µM,[38],57%
same,remaining binding at 10 µM,[39],99%
same,remaining binding at 10 µM,[40],86%
same,remaining binding at 10 µM,[41],90%
same,remaining binding at 10 µM,[42],91%
